Experimental findings from US7223728B2, “Synergistic use of thiazolidinediones with glucagon-like peptide-1 and agonists thereof to treat metabolic instability associated with non-insulin dependent diabetes” (Eli Lilly and Company, priority 1999, dated 2007) are described below.

The data set deals with Zucker Diabetic Fatty (ZDF) rats. The data set can be described thus: Seven-week co-administration study of TZD 300512 and IP^7-GLP-1 (7–37)OH in diabetic rats (heart weight, blood glucose, insulin). Format: in vivo, rat. The text has this: This study was designed to evaluate the effects of using a combination of sub-optimal doses of a TZD and a GLP-1 agonist on glucose metabolism and in addition, if this combination therapy would prevent occurrence of heart hypertrophy that is associated with optimal doses of TZD derivatives. Eight week old Zucker Diabetic Fatty (Genetic Models, Inc.) rats (ZDF) weighing about 350 grams were used in this study. Animals were allowed free access to water, and Purina Formulab 5008 chow. TZD 300512 was administered as 0.00006% diet admixture while IP^7-GLP-1 (7–37)OH, a GLP-1 agonist, was infused subcutaneously at a constant rate of 0.06 ug/min via implant Aztet pumps. The duration of study was seven weeks, and food consumption and body weight were monitored daily. Plasma glucose and insulin levels were measured weekly, and Glycated hemoglobin A1c was measured at the end of the study. Heart weights also were measured at the end of the study.
Table 1 summarizes final rat weight, daily food intake, plasma glucose levels, plasma insulin levels, Hbalc, and heart weight. Values were rounded off to the nearest decimal point.

[1] abbreviates: ZDF rats, TZD 0.00006% diet admixture, IP^7 0.06 ug/min subcutaneous infusion, seven weeks.
Setting [2] is: ZDF rats, measured at the end of the seven-week study.

Take “4-imidazopropionyl-GLP-1 (7–37)OH [IP^7]”: the “Glucose (plasma glucose level)” value (ZDF rats, fed state, TZD 0.00006% diet admixture, IP^7 0.06 ug/min subcutaneous infusion, seven weeks) turned out to be 367.5 ± 58.0 mg/dL. For the same substance, under setting [1], the “Food Int (daily food intake)” value was 30.4 ± 1.2 g/day, the “Insulin (plasma insulin level)” value is 13.0 ± 2.9 ng/mL and the “Weight (final rat weight)” value stood at 414.7 ± 7.9 g. Further, under setting [2], the “Hbalc (glycated hemoglobin A1c)” value was 9.5 ± 1.0% and the Heart wt worked out at 1.2 ± 0.03 g. Besides, the “Fed state plasma-glucose level as % of control levels” value (diabetic ZDF rats, 42-day treatment period) is 57.5 % of control levels. The “Course of plasma glucose levels over the 42-day treatment period” value (diabetic rats, 42-day treatment) is given as “increased”.
